{"source": "patent US20070009544A1", "about": "“Anti-allergic complex molecules” (priority 1999, published 2007)", "key": {"[1]": {"tested_on": "rat peritoneal mast cells", "assay": "Inhibition of IgE dependent (DNP-specific IgE / DNP-BSA) histamine secretion", "format": "cell-based", "description": "Peptides 2 and 2-Suc were also tested in vitro for their ability to block histamine secretion from rat peritoneal mast cells, in response to the IgE-dependent mechanism. The IgE dependent pathway is activated in response to an immunological trigger, brought about by aggregation of the high affinity receptors (FeεRI) for IgE, which are present on the cell surface of mast cells. This response involves crosslinking of cell bound IgE antibodies by the corresponding antigens (allergens).\nIsolated, purified mast cells were sensitized in the presence of a monoclonal DNP-specific IgE antibody (1 μg/10^6 cells) for 1 hour at 37° C. The cells were washed 3 times and incubated for 2 hours with different concentrations of each peptide, followed by triggering with the antigen DNP-BSA (100 ng/ml) in the presence of Brain Extract (0.1 mg/ml), for 20 min. at 37° C. Placing the tubes in ice terminated the reaction. The amount of histamine released from the cells was monitored."}, "[2]": {"tested_on": "abdominal skin of C.R rats", "assay": "Rat skin test: intradermal injection of peptide, then intradermal compound 48/80 or vehicle, wheal area", "format": "in vivo", "conditions": "for Mean Wheal Area ± STD, Vehicle: vehicle instead of compound 48/80", "procedure,_shortened": "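Peptide was injected intradermally (20 μl, in 10% DMSO/saline) at 20 or 200 μg; after 0.5 or 1 h, 20 μl compound 48/80 (0.1 mg/ml) or vehicle was injected intradermally at the same site. Wheal outlines were traced and areas measured by planimeter, reported as mean wheal area.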"}, "[3]": {"assay": "Peptide solubility (remarks; assay medium, Tyrode buffer)", "format": "physicochemical"}, "[4]": {"tested_on": "purified rat peritoneal mast cells", "assay": "Histamine secretion from intact mast cells incubated with peptide alone (secretagogue side effect)", "procedure": "(§1) Mast cells from the peritoneal cavity of C.R rats were isolated in Tyrode buffer (137 mM NaCl, 2.7 mM KC1, 1 mM MgCl2, 0.4 mM NaH2PO4, 20 mM Hepes, 1.0 mM CaCl2, 5.6 mM glucose, 1 mg/ml BSA, pH 7.2) and purified over a Ficoll gradient. A suspension of washed peritoneal cells was placed over a cushion of 30% Ficoll 400 (Pharmacia Biotech.) in buffered Saline containing 0.1% BSA; and centrifuged at 150O×g for 15 min. The purity of mast cells recovered from the bottom of the tube was >90%, as assessed by toluidine blue staining.\n(§2) Purified mast cells (duplicated of 10^5 cells/0.5 ml) were incubated in Tyrode buffer with buffer or with desired concentrations of the indicated peptide for 2 h. at. 37° C. Histamine secretion was subsequently stimulated by the indicated concentration of compound 48/80 (Sigma) dissolved in Tyrode buffer. Incubation with compound 48/80 was carried out for 20 mm.in at 37° C. The reaction was terminated by placing the tubes on ice. The cells were sedimented by centrifugation at 150×g for 5 mm.in and the supernatants were collected. The amount of histamine release was determined as previously described (Aridor et al., 1990). Briefly, cell pellets were lysed using 0.1N NaOH and the volume of each sample was adjusted to 0.5 ml by H2O. Histamine content was assayed using the o-phtalaldehyde (OPT) fluorimetric method (Shore et al., 1959). Aliquots of 0.4 ml from the supernatants and cell lysates were incubated with 1.6 ml H20, 0.4 ml 1N NaOH and 0.1 ml of 10 mg/l ml OPT in methanol, for 4 min at room temperature. The reaction was terminated by the addition of 0.2 ml 3N HCl. Samples were centrifuged at 150×g for 5 min. and 0.2 ml samples were transferred to a 96 well plate. The histamine spectrofluorometric assay was run in microplates using a microplates reader (FL-600, Biotek instruments Winooski, Vt., USA). Samples were excited by light at 340 nm and read at 440 nm. Histamine release was calculated as the percentage of total histamine content (supernatant/pellet+supernatant) in each sample. Each data point represents the average of duplicate measurements. The spontaneously released histamine was subtracted."}, "[5]": {"tested_on": "purified rat peritoneal mast cells", "format": "cell-based", "procedure,_shortened": "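Intact purified rat peritoneal mast cells were incubated at 37° C with increasing peptide concentrations, then stimulated with 5 μg/ml compound 48/80 (maximal release). Histamine secretion is expressed as % of total cellular histamine after subtracting spontaneous release, as the mean of duplicates.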"}, "[6]": {"tested_on": "purified rat peritoneal mast cells", "procedure": "as §1, §2"}}, "note": "Entries after “also recorded” stand apart in the source; their conditions may differ. Read-outs that look alike come from different tables or passages of the source. Numbered stars: 1 amine (or outer) side, 2 acyl side, 3 side chain; on linkers, the order of the positions; unused ones are H or OH. Peptide text beside a SMILES is read from it. Suc = O=C(CCC(=O)[*:2])[*:1]", "data": [{"compound": "CC(C)C[C@H](NC(=O)CNC(=O)[C@H](CS)NC(=O)[C@H](CCC(=O)O)NC(=O)[C@H](CCCCN)NC(=O)[C@H](CC(C)C)NC(=O)[C@H](CC(N)=O)NC(=O)[C@H](CC(N)=O)NC(=O)[C@H](CCCCN)NC(=O)[C@@H]1CCCN1C(=O)[C@H](C)NC(=O)[C@H](CC(C)C)NC(=O)[C@H](CC(C)C)NC(=O)[C@H](C)NC(=O)[C@H](CC(C)C)NC(=O)[C@H](CC(C)C)NC(=O)[C@@H](NC(=O)[C@H](C)NC(=O)[C@@H]1CCCN1C(=O)[C@H](CC(C)C)NC(=O)[C@H](CC(C)C)NC(=O)[C@H](C)NC(=O)[C@@H](NC(=O)[C@H](C)NC(=O)[C@H](C)NC(=O)CCC(=O)O)C(C)C)C(C)C)C(=O)N[C@@H](Cc1ccc(O)cc1)C(=O)O", "note": "[Peptide 2-Suc] (Suc-AAVALLPAVLLALLAPKNNLKECGLY-OH; C-terminus assumed)", "values": [{"measurement": "inhibition of IgE induced histamine secretion", "setting": "[1]; 600 μg/ml peptide, DNP-BSA 100 ng/ml", "result": 90, "unit": "%"}, {"measurement": "block of histamine secretion activated by an immunological trigger", "setting": "[1]; DNP-specific IgE, DNP-BSA", "result": "effectively block histamine secretion"}, {"measurement": "block of compound 48/80 induced allergic reaction in vivo, rat skin", "setting": "[2]; intradermal peptide", "result": "less effective than peptide 2"}, {"measurement": "Mean Wheal Area ± STD, Compound 48/80", "setting": "[2]; intradermal peptide 1 mg/ml, 0.5 hour before allergic induction", "result": "93.4 ± 32.0 (n = 11) mm^2"}, {"measurement": "Mean Wheal Area ± STD, Vehicle", "setting": "[2]; intradermal peptide 1 mg/ml, 0.5 hour before", "result": "56.8 ± 24.1 (n = 11) mm^2"}, {"measurement": "Mean Wheal Area ± STD, Compound 48/80", "setting": "[2]; intradermal peptide 1 mg/ml, 1 hour before allergic induction", "result": "89.3 ± 30.1 (n = 12) mm^2"}, {"measurement": "Mean Wheal Area ± STD, Vehicle", "setting": "[2]; intradermal peptide 1 mg/ml, 1 hour before", "result": "57.7 ± 23.2 (n = 12) mm^2"}, {"measurement": "Mean Wheal Area ± STD, Compound 48/80", "setting": "[2]; intradermal peptide 10 mg/ml, 0.5 hour before allergic induction", "result": "73.8 ± 28.7 (n = 10) mm^2"}, {"measurement": "Mean Wheal Area ± STD, Vehicle", "setting": "[2]; intradermal peptide 10 mg/ml, 0.5 hour before", "result": "57.2 ± 21.7 (n = 10) mm^2"}, {"measurement": "Mean Wheal Area ± STD, Compound 48/80", "setting": "[2]; intradermal peptide 10 mg/ml, 1 hour before allergic induction", "result": "78.1 ± 28.3 (n = 12) mm^2"}, {"measurement": "Mean Wheal Area ± STD, Vehicle", "setting": "[2]; intradermal peptide 10 mg/ml, 1 hour before", "result": "54.3 ± 25.8 (n = 12) mm^2"}, {"measurement": "reduction of compound 48/80 induced allergic reaction", "setting": "[2]; intradermal peptide 0.5 hour before allergic induction", "result": "significantly reduced the wheal"}, {"measurement": "reduction of compound 48/80 induced allergic reaction", "setting": "[2]; intradermal peptide, lower dose or 1 hour before allergic induction", "result": "had no effect"}, {"measurement": "solubility", "setting": "[3]", "result": "more soluble in the assay medium, as compared to peptide 2"}, {"measurement": "Secretagogue (histamine secretion following incubation of mast cell with different concentrations of each peptide)", "setting": "[4]; Table 1, peptide alone, no allergen", "result": "−"}, {"measurement": "histamine secretion from mast cells on incubation with increasing concentrations of peptide alone", "setting": "[4]; no additional allergen", "result": "did not induce histamine secretion; also recorded: no stimulatory effect"}, {"measurement": "IC50, compound 48/80 induced histamine secretion", "setting": "[5]", "result": 200, "unit": "µg/mL"}, {"measurement": "maximal inhibition of compound 48/80 induced histamine secretion", "setting": "[5]; 600 μg/ml peptide, compound 48/80 concentration not given", "result": 80, "unit": "%"}, {"measurement": "Inhibitor (degree of inhibition of histamine secretion from mast cells)", "setting": "[5]; Table 1, incubation with different concentrations of each peptide, then induction of the allergic reaction", "result": "+++ (+++ Potent inhibitor (>85% inhibition))"}]}, {"compound": "VTVLALGALAGVGVGPKNNLKECGLY [WALL010]", "values": [{"measurement": "maximal inhibition of compound 48/80 induced histamine release", "setting": "[5]; 200 μg/ml peptide", "result": 16.7, "unit": "%"}, {"measurement": "Secretagogue (histamine secretion following incubation of mast cell with different concentrations of each peptide)", "setting": "[6]", "result": "+"}, {"measurement": "histamine secretion from mast cells on incubation with increasing concentrations of peptide alone", "setting": "[6]", "result": "resulted in histamine secretion"}]}]}
